Reference: US5773424A, “Treatment of toxoplasmosis” (priority 1994, dated 1998)

Biological target: T. gondii adenosine kinase (Toxoplasma gondii, UniProt Q9TVW2)
Assay: biochemical
Details: not given
Protocol: Preparation of cytosol extracts. For the structure activity relationships studies, approximately 5×10^8 T. gondii were suspended in 1.2 ml of 50 mM N-2-hydroxyethylpiperazine-N'-2-ethanesulfonic acid (HEPES)-Cl (pH 8.0)/1 mM dithiothreitol and homogenized for 30 seconds at setting 10, using a Brinnmann Instruments Polytron homogenizer fitted with a PTA 7K1 probe. The homogenate was then centrifuged at approximately 116,000 g for 1 hour at 5° and the supernatant (cytosol extract) collected and used as the enzyme source. Fresh cytosol extracts were prepared for each experiment.
Adenosine kinase assay. T. gondii adenosine kinase activity was measured by following the formation of [^14 C]AMP from [^14 C]adenosine and ATP. […] Therefore, the standard reaction mixture contained 50 mM HEPES-Cl (pH 8.0), 1 mM dithiothreitol, 5 μM [8-^14 C]adenosine (45 Ci/mol), 0.5 mM ATP, 0.5 mM MgCl2, 25 μM (+)-EHNA or 100 μM (±)-EHNA,10-30 μl of cytosol extract (approximately 3-10 μg of protein), and either 0, 0.1, 0.25, 0.5 or 1.0 mM of the compound to be tested, in a final volume of 150 μl.
Reactions were started by the addition of [8-^14 C]adenosine, incubated at 37° for 10 minutes and terminated by placing the reaction tubes in a boiling water bath for 2 minutes. Precipitated proteins were removed by centrifugation in a microcentrifuge (approximately 13,000 g) for 5 minutes, and a 15 μl aliquot of the resulting supernatant was mixed with 5 μl of a solution containing 10 mM each of AMP and adenosine. This mixture was then spotted on silica gel thin layer chromatography plates which were developed with a mixture of chloroform/methanol/acetic acid (16:3:1). […] The substrate and product spots (which accounted for all of the radioactivity on the plates) were identified by UV quenching, cut out, and the radioactivity quantitated by liquid scintillation counting in 20 ml of Scintilene, using a Packard 460 scintillation counter. […] Enzyme velocity was calculated by multiplying the fraction of AMP formed from adenosine times the amount of adenosine in the assay, and dividing by the incubation time.
Determination and significance of AppKi values. AppKi values were used to determine the relative degree of binding of compounds to adenosine kinase as compared to adenosine. AppKi values were estimated from Dixon plots of the data (1/.nu. versus [I]), using a computer program with least squares fitting according to the general principles of Cleland (Cleland, W W, The statistical analysis of enzyme kinetic data. Adv. Enzymol. 29:1-32, 1967). The program was written by Dr. Sungman Cha (Brown University, Providence, R.I.) and modified to fit IBM BASIC by Dr. Fardos N. M. Naguib. […] It should be noted, however, that the type of inhibition (i.e., competitive, noncompetitive, or uncompetitive) produced by the compounds was not determined, nor were the compounds evaluated as substrates for T. gondii adenosine kinase.

Sequence of T. gondii adenosine kinase (Q9TVW2 whole entry): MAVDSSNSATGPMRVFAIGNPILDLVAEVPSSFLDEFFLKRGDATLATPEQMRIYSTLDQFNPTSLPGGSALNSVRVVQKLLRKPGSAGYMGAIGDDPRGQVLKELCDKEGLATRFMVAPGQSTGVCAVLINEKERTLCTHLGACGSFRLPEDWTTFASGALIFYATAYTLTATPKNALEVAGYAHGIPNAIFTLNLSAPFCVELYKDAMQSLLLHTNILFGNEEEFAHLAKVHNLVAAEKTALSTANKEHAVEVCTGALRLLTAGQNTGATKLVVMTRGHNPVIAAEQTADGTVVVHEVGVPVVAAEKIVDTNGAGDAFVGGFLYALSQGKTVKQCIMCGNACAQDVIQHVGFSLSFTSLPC

| Structure (SMILES) | Ki |
| --- | --- |
| Nc1ncnc2c1ncn2[C@H]1C[C@H](O)[C@@H](CO)O1 [Compound 87, 2'-Deoxyadenosine] | 4200 µM |
| Nc1nc(Cl)nc2c1ncn2[C@@H]1O[C@H](CO)[C@@H](O)[C@H]1O [Compound 7] | 870 ± 50 µM |
| Nc1ncnc2nc[nH]c12 [Compound 115, Adenine] | 6500 µM |
| C[C@H]1O[C@@H](n2cnc3c(N)ncnc32)[C@H](O)[C@@H]1O [Compound 93, 5'-Deoxyadenosine] | 40 ± 3 µM |
| Nc1c2ncn([C@@H]3O[C@H](CO)[C@@H](O)[C@H]3O)c2nc[n+]1[O-] [Compound 4] | 1230 µM |
| CSC[C@H]1O[C@@H](n2cnc3c(N)ncnc32)[C@H](O)[C@@H]1O [Compound 98, 5'-Methylthio-5'-deoxyadenosine] | 530 ± 230 µM |
| COc1ncnc2c1ncn2[C@@H]1O[C@H](CO)[C@@H](O)[C@H]1O [Compound 16] | 370 ± 40 µM |
| CSc1ncnc2c1nnn2[C@@H]1O[C@H](CO)[C@@H](O)[C@H]1O [Compound 83, 8-Aza-6-methylmercaptopurine riboside] | 130 ± 40 µM |
| OC[C@H]1O[C@@H](n2cnc3c(NCc4ccccc4)ncnc32)[C@H](O)[C@@H]1O [Compound 45] | 100 ± 30 µM |
| Nc1ncnc2c1ncn2[C@@H]1O[C@H](C(=O)O)[C@@H](O)[C@H]1O [Compound 99, adenosine 5'-Carboxylic acid (5'-Carboxyladenosine)] | 1100 µM |
| OC[C@H]1O[C@@H](n2cnc3c2N=CNC[C@H]3O)[C@H](O)[C@@H]1O [Compound 85, Coformycin] | 2000 µM |
| OC[C@H]1O[C@@H](n2cnc3c(I)ncnc32)[C@H](O)[C@@H]1O [Compound 14] | 18 ± 1 µM |
| Nc1ncnc2c1cnn2[C@@H]1O[C@H](CO)[C@@H](O)[C@H]1O [Compound 72, 8-Aza-7-deazaadenosine] | 1700 µM |
| C[C@H](Cc1ccccc1)Nc1ncnc2c1ncn2[C@@H]1O[C@H](CO)[C@@H](O)[C@H]1O [Compound 49] | 750 ± 30 µM |
| OC[C@H]1O[C@@H](n2ncc3cncnc32)[C@H](O)[C@@H]1O [Compound 75, 8-Aza-7-deazapurine riboside] | 5100 µM |
| CNc1ncnc2c1c(C(N)=S)cn2[C@@H]1O[C@H](CO)[C@@H](O)[C@H]1O [Compound 71, N^6 -Methyl-7-thiocarboxyamido-7-deazaadenosine] | 150 ± 1 µM |

| Structure (SMILES) | Ki |
| --- | --- |
| Nc1ccc(CNc2ncnc3c2ncn3[C@@H]2O[C@H](CO)[C@@H](O)[C@H]2O)cc1 [Compound 46] | 120 ± 10 µM |
| OC[C@H]1O[C@@H](n2cc(Br)c3c(NO)ncnc32)[C@H](O)[C@@H]1O [Compound 70, N^6 -Hydroxy-7-bromo-7-deazaadenosine] | 37 ± 9 µM |
| NNc1c(C(N)=O)c2c(N)ncnc2n1[C@@H]1O[C@H](CO)[C@@H](O)[C@H]1O [Compound 74, 8-Hydrazino-7-carboxamido-7-deazaadenosine (6-Hydrazinosangivamycin)] | 160 ± 9 µM |
| Nc1ncnc2c1ncn2[C@@H]1O[C@H](CCl)[C@@H](O)[C@H]1O [Compound 95, 5'-Chloro-5'-deoxyadenosine] | 210 ± 10 µM |
| OC[C@H]1O[C@@H](n2ccc3c(Cl)ncnc32)[C@H](O)[C@@H]1O [Compound 68] | 72 ± 12 µM |
| OC[C@H]1O[C@@H](n2cnc3c(S)ncnc32)[C@H](O)[C@@H]1O [Compound 17] | 5300 µM |
| COc1ccc(C(=O)Nc2ncnc3c2ncn3[C@@H]2O[C@H](CO)[C@@H](O)[C@H]2O)cc1 [Compound 47] | 3.9 ± 0.9 µM |
| OC[C@H]1O[C@@H](n2cnc3c(NC4CCCCC4)ncnc32)[C@H](O)[C@@H]1O [Compound 40] | 240 ± 70 µM |
| O=C(Nc1ncnc2c1ncn2[C@@H]1O[C@H](CO)[C@@H](O)[C@H]1O)c1ccccc1 [Compound 44] | 23 ± 1 µM |
| CC(C)=CCCC(C)=CCNc1ncnc2c1ncn2[C@@H]1O[C@H](CO)[C@@H](O)[C@H]1O [Compound 41] | 100 ± 5 µM |
| CCNc1ncnc2c1ncn2[C@@H]1O[C@H](CO)[C@@H](O)[C@H]1O [Compound 28] | 100 ± 3 µM |
| NC(=NO)c1cn([C@@H]2O[C@H](CO)[C@@H](O)[C@H]2O)c2ncnc(N)c12 [Compound 56] | 200 ± 6 µM |
| C=CCNc1ncnc2c1ncn2[C@@H]1O[C@H](CO)[C@@H](O)[C@H]1O [Compound 30] | 220 ± 20 µM |
| CC1(C)O[C@@H]2[C@H](O1)[C@@H](CO)O[C@H]2n1cnc2c(=S)[nH]cnc21 [Compound 122, 2',3'-O-Isopropylidene-6-mercaptopurine riboside] | 3900 µM |
| O=c1[nH]cnc2c1cnn2[C@@H]1O[C@H](CO)[C@@H](O)[C@H]1O [Compound 77, 8-Aza-6-hydroxy-7-deazapurine riboside (allopurinol)] | 15000 µM |

Same assay, conditions: AppKi for inhibition of T. gondii adenosine kinase, 5 μM adenosine; ± range, at least two estimations

| Structure (SMILES) | Ki |
| --- | --- |
| Nc1ncnc2c1ncn2[C@@H]1O[C@H](CI)[C@@H](O)[C@H]1O [Compound 96, 5'-Iodo-5'-deoxyadenosine] | 230 ± 10 µM |
| O=[N+]([O-])c1ccc(C[Se]c2ncnc3c2ncn3[C@@H]2O[C@H](CO)[C@@H](O)[C@H]2O)cc1 [Compound 24] | 84 ± 46 µM |
| Nc1ncnc2c1c(Cl)cn2[C@@H]1O[C@H](CO)[C@@H](O)[C@H]1O [Compound 52] | 10 ± 1 µM |
| N#Cc1cn([C@@H]2O[C@H](CO)[C@@H](O)[C@H]2O)c2ncnc(N)c12 [Compound 54] | 21 ± 2 µM |
| O=[N+]([O-])c1ccc(CSc2ncnc3c2ncn3[C@@H]2O[C@H](CO)[C@@H](O)[C@H]2O)cc1 [Compound 21] | 140 ± 10 µM |
| Nc1ncnc2c1ncn2[C@@H]1O[C@](F)(COS(N)(=O)=O)[C@@H](O)[C@H]1O [Compound 111, 4'-Flouro-5'-O-sulfamoyladenosine (nucleocidin)] | 850 ± 220 µM |
| OC[C@H]1O[C@@H](n2cnc3c(=[Se])[nH]cnc32)[C@H](O)[C@@H]1O [Compound 23] | 130 ± 20 µM |
| CC(C)=CCNc1ncnc2c1ncn2[C@@H]1O[C@H](CO)[C@@H](O)[C@H]1O [Compound 36] | 51 ± 4 µM |

Same assay, conditions: read-out: AppKi for inhibition of T. gondii adenosine kinase; 5 μM adenosine; ± range, at least two estimations

| Structure (SMILES) | Ki |
| --- | --- |
| Nc1ncnc2c1ncn2[C@@H]1C[C@H](CO)[C@@H](O)[C@H]1O (relative stereo) [Compound 112, Carbocyclic adenosine] | 170 ± 30 µM |

Same assay, conditions: read-out: Inhibition of T. gondii adenosine kinase

| Structure (SMILES) | inhibition at 1000 µM |
| --- | --- |
| CO[C@@H]1[C@H](O)[C@@H](CO)O[C@H]1n1cnc2c(N)ncnc21 [Compound 88, 2'-O-Methyladenosine] | < 10% |
| CCNC(=O)[C@H]1O[C@@H](n2cnc3c(N)ncnc32)[C@H](O)[C@@H]1O [Compound 103, 5'-N-(Ethyl)carboxamidoadenosine] | < 10% |
| OC[C@H]1O[C@@H](n2cnc3ccccc32)[C@H](O)[C@@H]1O [Compound 84, Benzimidazole riboside ("1,3-dideazapurine riboside")] | < 10% |
| CO[C@H]1[C@@H](O)[C@H](n2cnc3c(N)ncnc32)O[C@@H]1CO [Compound 91, 3'-O-Methyladenosine] | < 10% |
| CC(=O)OC[C@H]1O[C@@H](n2cnc3c(N)ncnc32)[C@H](O)[C@@H]1OC(C)=O [Compound 110, 3',5'-Di-O-acetyladenosine] | < 10% |
| Nc1nc2c(ncn2[C@@H]2O[C@H](CO)[C@@H](O)[C@H]2F)c(=O)[nH]1 [Compound 121, 2'-Fluoro-2'-deoxyguanosine] | < 10% |
| Nc1nc(Nc2ccccc2)nc2c1ncn2[C@@H]1O[C@H](CO)[C@@H](O)[C@H]1O [Compound 9] | < 10% |
| CNC(=O)[C@H]1O[C@@H](n2cnc3c(N)ncnc32)[C@H](O)[C@@H]1O [Compound 102, 5'-N-(Methyl)carboxamidoadenosine] | < 10% |
| Nc1ccnc2c1ncn2[C@@H]1O[C@H](CO)[C@@H](O)[C@H]1O [Compound 5] | < 10% |
| OC[C@H]1O[C@@H](n2ncc3c(=S)[nH]cnc32)[C@H](O)[C@@H]1O [Compound 78, 8-Aza-6-mercapto-7-deazapurine riboside] | < 10% |
| Nc1nc2c(ncn2[C@@H]2O[C@H](CO)[C@@H](O)[C@H]2O)c(=O)[nH]1 [Compound 64] | < 10% |

Same assay, conditions: relative to adenosine

| Structure (SMILES) | Effect on binding to T. gondii adenosine kinase, in words |
| --- | --- |
| CO[C@@H]1[C@H](O)[C@@H](CO)O[C@H]1n1cnc2c(N)ncnc21 [Compound 88, 2'-O-Methyladenosine] | abolishes |
| CO[C@H]1[C@@H](O)[C@H](n2cnc3c(N)ncnc32)O[C@@H]1CO [Compound 91, 3'-O-Methyladenosine] | abolishes |

Same assay, conditions: relative to reference compound adenosine

| Structure (SMILES) | Decrease in binding to T. gondii adenosine kinase |
| --- | --- |
| Nc1ncnc2c1ncn2[C@H]1C[C@H](O)[C@@H](CO)O1 [Compound 87, 2'-Deoxyadenosine] | 600 fold |
| Nc1ncnc2nc[nH]c12 [Compound 115, Adenine] | 930 fold |
| C[C@H]1O[C@@H](n2cnc3c(N)ncnc32)[C@H](O)[C@@H]1O [Compound 93, 5'-Deoxyadenosine] | 5.7 fold |
